Paper PMC4721062, “Oxadiazole-2-oxides may have other functional targets, in addition to SjTGR, through which they cause mortality in Schistosoma japonicum” (Parasites & Vectors, 2016)
Like-named read-outs stand apart in the source and are kept apart here.

Tests used:
[1] = tested on: adult S. japonicum; assay: microbe, parasite or virus in culture; assay type: cell-based; settings: for mortality at 100 µM / killing at 25 µM / killing at 50 µM / killing at 100 µM / mortality at 25 µM / mortality at 10 µM: Schistosoma japonicum; for mortality at 100 µM / mortality at 25 µM / mortality at 10 µM: read-out: Mortality of adult worms; for killing at 25 µM / killing at 50 µM / killing at 100 µM / Killing activity 24hr / Killing activity 48hr / Killing activity 72hr: adult worms; for Killing activity 24hr / Killing activity 48hr / Killing activity 72hr: 10 μM
Summary of the method: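 Adult worm pairs recovered by portal perfusion from ICR mice 35 days after infection with 50 cercariae, cultured in RPMI 1640 (pH 7.5, 20 mM HEPES, 10% FBS) at 37 °C, 5% CO2. Oxadiazole-2-oxides at 10, 25, 50, 100 μM; motility and survival scored microscopically at 24, 48, 72 h, death being no movement over 2 min; three independent experiments averaged.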

[2] = tested on: juvenile S. japonicum; assay: microbe, parasite or virus in culture; assay type: cell-based; settings: for killing at 2 µM / killing at 5 µM / killing at 50 µM / Killing activity 24hr / Killing activity 48hr / Killing activity 72hr: juvenile worms; for Killing activity 24hr / Killing activity 48hr / Killing activity 72hr: 10 μM
Summary of the method: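 Juvenile S. japonicum, 20–30 tail-shed cercariae per well, were exposed to compounds at 2, 5, 10 and 50 μM in RPMI 1640 with 10% FBS and HEPES. Survival was scored microscopically at 24, 48 and 72 h, with death defined by disrupted internal structure or tegument or 1 min without motility. % D is dead/total, averaged over three experiments.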

[3] = 24 h, read-out: Killing activity 24hr
[4] = 48 h, read-out: Killing activity 48hr
[5] = 72 h, read-out: Killing activity 72hr
[6] = Schistosoma japonicum, 72 h, read-out: Mortality of juvenile worms
[7] = Schistosoma japonicum, 24 h, read-out: Killing activity 24hr
[8] = Schistosoma japonicum, 48 h, read-out: Killing activity 48hr
[9] = Schistosoma japonicum, 72 h, read-out: Killing activity 72hr

SMILES	killing at 25 µM [1, 3]	killing at 25 µM [1, 4]	killing at 25 µM [1, 5]	killing at 50 µM [1, 3]	killing at 50 µM [1, 4]	killing at 50 µM [1, 5]	killing at 100 µM [1, 3]	killing at 100 µM [1, 4]	killing at 100 µM [1, 5]	Killing activity 24hr ([1]; 24 h)	Killing activity 48hr ([1]; 48 h)	Killing activity 72hr ([1]; 72 h)	killing at 2 µM [2, 7]	killing at 2 µM [2, 8]	killing at 2 µM [2, 9]	killing at 5 µM [2, 7]	killing at 5 µM [2, 8]	killing at 5 µM [2, 9]	killing at 50 µM [2, 7]	killing at 50 µM [2, 8]	other results
COc1ccc(-c2no[n+]([O-])c2CO)cc1 [Compound 4a]	50%	100%	100%	88.9%	100%	100%	100%	100%	100%	37.5%D	37.5%D	50.0%D	29.4%	35.3%	44.1%	36.2%	48.9%	53.2%	56.8%	88.6%	mortality at 100 µM [1]: 100%; mortality at 100 µM [2, 6]: 90 ± 2.8%; killing at 50 µM [2, 9]: 90.9%; Killing activity 24hr ([2]; 24 h): 26.7%D; Killing activity 48hr ([2]; 48 h): 37.8%D; Killing activity 72hr ([2]; 72 h): 58.9%D
Cc1ccc(-c2no[n+]([O-])c2CO)cc1 [Compound 4b]	63.6%	81.8%	66.7%	60%	80%	100%	57.1%	100%	100%	n.e.	n.e.	n.e.	35.2%	35.2%	42.3%	42.9%	46.9%	51%	76.5%	88.2%	mortality at 100 µM ([1]; 24 h): 57.1 ± 2.1%; mortality at 100 µM ([1]; 48 h): 100%; mortality at 50 µM ([2]; Schistosoma japonicum, 24 h, read-out: Mortality of juvenile worms): > 70%; mortality at 100 µM [2, 6]: 100%; killing at 50 µM [2, 9]: 100%; Killing activity 24hr ([2]; 24 h): 48.0%D; Killing activity 48hr ([2]; 48 h): 50.0%D; Killing activity 72hr ([2]; 72 h): 60.0%D
COc1ccc(-c2no[n+]([O-])c2C#N)cc1 [Compound 7a]	88.9%	100%	100%	87.5%	100%	100%	100%	100%	100%	70.0%D	100.0%D	100.0%D	14.6%	29.2%	41.7%	15.7%	39.2%	39.2%	46.2%	53.3%	mortality at 25 µM ([1]; 24 h): > 75%; mortality at 10 µM ([1]; 72 h): 100%; killing at 50 µM [2, 9]: 70%; Killing activity 24hr ([2]; 24 h): 36.7%D; Killing activity 48hr ([2]; 48 h): 36.7%D; Killing activity 72hr ([2]; 72 h): 60.0%D
Cc1ccc(-c2no[n+]([O-])c2C#N)cc1 [Compound 7b]	100%	100%	100%	100%	100%	100%	100%	100%	100%	16.7%D	50.0%D	83.3%D	16%	26.6%	31.9%	21.1%	26.3%	36.8%	47.5%	55.9%	mortality at 25 µM ([1]; 24 h): > 75%; mortality at 10 µM ([1]; 72 h): 83.3 ± 4.7%; killing at 50 µM [2, 9]: 57.6%; Killing activity 24hr ([2]; 24 h): 23.8%D; Killing activity 48hr ([2]; 48 h): 33.3%D; Killing activity 72hr ([2]; 72 h): 57.1%D
